In brackets after ≈: the same amount, converted by molar mass. Where two headings read alike, the source gives them in different places.
Experiments:
[1] = Bioavailability of ATV014 compared to GS-441524
Excerpt: (§1) The compound ATV014 is a derivative of GS-441524.

[2] = Activity of ATV014 compared to GS-441524
Excerpt: as §1

[3] = Study on the stability of influence factors (40° C./75% RH open, 60° C. sealed, 7 days; HPLC and XRPD); assay type: physicochemical; settings: for Purity at day 7 (Peak area %) 40° C./75% RH: 40° C./75% RH (open); for Purity at day 7 (Peak area %) 40° C./75% RH / Purity at day 7 (Peak area %) 60° C.: 7 days, HPLC; for Purity at day 7 (Peak area %) 60° C.: 60° C. (sealed sample bottle); for Purity at day 0 (Peak area %): day 0, HPLC; for physical and chemical stability / purity and crystalline structure: 60° C. and 40° C./75% RH for 7 days
Excerpt: X-ray powder diffraction patterns were collected by using a zero-background sample disk on a German Bruker D8 Advance X-ray diffractometer equipped with an automatic sampler. The used radiation source is Cu k α (λ=1.5418 Å), and the light tube voltage is set at 40 KV and the light tube current is set at 40 mA. The divergent slit of X-rays is 0.6 mm. A proper amount of sample was placed in the center of the zero-background sample tray under the environmental condition, the sample was lightly pressed with a clean glass slide to obtain a flat plane, and the zero-background sample rack was fixed. Diffraction analysis of the sample was performed with a scanning step size of 0.02° (2θ) in the range of 3-40° (2θ). The software used for data collection is DIFFRAC.COMMANDER, and the data is analyzed and presented using DIFFRAC.EVA.
The instrument used for liquid chromatography analysis is Agilent HPLC 1260 series,
ATV-014 free base crystalline form I, ATV-014 hydrobromate crystalline form I, and ATV-014 p-toluenesulfonate crystalline form I were taken and placed at 40° C./75% RH (open) and 60° C. (sealed sample bottle) for 7 days. High-performance liquid chromatography and X-ray powder diffraction detection were performed at 0 and 7 days, respectively.

[4] = Moisture absorption on placement under RH (open) conditions for one week; assay type: physicochemical; settings: for moisture absorption: one week
Excerpt: • (1) The compound ATV-014 hydrobromate crystalline form I provided herein is placed under 70% RH (open) conditions for one week, the moisture absorption is 0.2%, and under 90% RH (open) conditions for one week, the moisture absorption is 18.8%. • (2) The compound ATV-014 p-toluenesulfonate crystalline form I provided herein is placed under 30% RH (open) conditions for one week, the moisture absorption is 0.4%, and under 90% RH (open) conditions for one week, the moisture absorption is 0.5%.

[5] = DVS hygroscopicity test; assay type: physicochemical
[6] = Placement under 40° C./75% RH (open) conditions for one week (hydrochloride); assay type: physicochemical
[7] = Solubility study in biological media (FaSSIF, FeSSIF, SGF, water) at 37° C.; assay type: physicochemical; settings: for solubility at 0.5 h / solubility at 2 h / solubility at 24 h: thermodynamic from solid
Description: According to the results of salt formation screening research, the solubilities of free base crystalline form I and p-toluenesulfonate crystalline form I at 0.5 hours, 2 hours, and 24 hours were measured in FaSSIF, FeSSIF, SGF, and water at 37° C.

[8] = in vivo in mice, compared with Remdesivir; cited from earlier work
[9] = compared with Remdesivir; cited from earlier work
[10] = after placement under 30% RH and 90% RH (open) for one week

Purity at day 7 (Peak area %) 40° C./75% RH [3] | Purity at day 7 (Peak area %) 60° C. [3] | Purity at day 0 (Peak area %) [3] | moisture absorption ([4]; 90% RH (open)) | hygroscopicity (DVS results) [5] | hygroscopic weight gain ([5]; 90% RH) | physical and chemical stability [3] | purity and crystalline structure [3] | pH (solution pH) ([7]; FaSSIF, pH 6.45, 0.5 h) | pH (solution pH) ([7]; FaSSIF, pH 6.45, 2 h) | pH (solution pH) ([7]; FaSSIF, pH 6.45, 24 h) | pH (solution pH) ([7]; FeSSIF, pH 4.95, 0.5 h) | pH (solution pH) ([7]; FeSSIF, pH 4.95, 2 h) | pH (solution pH) ([7]; FeSSIF, pH 4.95, 24 h) | pH (solution pH) ([7]; SGF, pH 1.24, 0.5 h) | pH (solution pH) ([7]; SGF, pH 1.24, 2 h) | pH (solution pH) ([7]; SGF, pH 1.24, 24 h) | pH (solution pH) ([7]; water, pH 5.53, 0.5 h) | pH (solution pH) ([7]; water, pH 5.53, 2 h) | Structure (SMILES) | solid form during / after the DVS test [5] | further results
 |  |  |  |  |  |  |  |  |  |  |  |  |  |  |  |  |  |  | N#C[C@@]1(c2ccc3c(N)ncnn23)O[C@H](COC(=O)C2CCCCC2)[C@@H](O)[C@H]1O [ATV014] |  | bioavailability [1]: better; activity [2]: better
Liquefaction, | 99.57% | 99.46% | 18.8% | has hygroscopicity | 18.8% |  |  |  |  |  |  |  |  |  |  |  |  |  | Br.N#C[C@@]1(c2ccc3c(N)ncnn23)O[C@H](COC(=O)C2CCCCC2)[C@@H](O)[C@H]1O [ATV-014 hydrobromide crystalline form I] | transforms into an amorphous glassy solid | state of the sample ([3]; 40° C./75% RH for 7 days): the sample liquefies; purity and crystalline form ([3]; 60° C. for 7 days): remained unchanged; moisture absorption ([4]; 70% RH (open)): 0.2%; hygroscopic weight gain ([5]; 70% RH, after equilibrating for 30 to 120 minutes): 0.2%
 |  |  |  |  |  |  |  |  |  |  |  |  |  |  |  |  |  |  | Cl.N#C[C@@]1(c2ccc3c(N)ncnn23)O[C@H](COC(=O)C2CCCCC2)[C@@H](O)[C@H]1O [ATV-014 hydrochloride crystalline form] |  | crystalline structure and chemical purity [6]: have not changed; physical and chemical stability [6]: good
98.71% | 98.62% | 98.60% | 0.5% | slight hygroscopicity | 0.5% | good | remained unchanged | 5.7 | 5.67 | 5.85 | 4.65 | 4.62 | 4.83 | 0.69 | 0.70 | 1.20 | 2.05 | 2.07 | Cc1ccc(S(=O)(=O)O)cc1.N#C[C@@]1(c2ccc3c(N)ncnn23)O[C@H](COC(=O)C2CCCCC2)[C@@H](O)[C@H]1O.O | no change in the crystalline structure | moisture absorption ([4]; 30% RH (open)): 0.4%; crystalline structure and chemical purity [4, 10]: have not changed; physical and chemical stability [4, 10]: good; solubility [7]: higher than 5 mg/mL; solubility in water relative to that of free base [7]: 30 times; solubility ([7]; pH 1.24): >5000 µg/mL; XPRD (solid form of the residue) ([7]; pH 4.95): free base; XPRD (solid form of the residue) ([7]; pH 5.53): free base; XPRD (solid form of the residue) ([7]; pH 6.45): free base; pH (solution pH) ([7]; water, pH 5.53, 24 h): 2.43
98.09% | 98.10% | 98.12% |  |  |  | good | remained unchanged | 6.45 | 6.44 | 6.58 | 4.76 | 4.74 | 4.96 | 0.95 | 0.9 | 1.26 | 7.24 | 6.45 | N#C[C@@]1(c2ccc3c(N)ncnn23)O[C@H](COC(=O)C2CCCCC2)[C@@H](O)[C@H]1O [ATV-014 free base crystalline form I] |  | solubility ([7]; SGF, 37° C., 0.5-24 h, medium not named in the sentence for the p-toluenesulfonate): 2500 to 2900 µg/mL; solubility at 0.5 h ([7]; simulated gastric fluid, SGF, pH 1.24, 0.5 h, 37° C.): 2480 µg/mL (≈ 6180 µM); solubility at 2 h ([7]; simulated gastric fluid, SGF, pH 1.24, 2 h, 37° C.): 2560 µg/mL (≈ 6380 µM); solubility at 24 h ([7]; simulated gastric fluid, SGF, pH 1.24, 24 h, 37° C.): 2860 µg/mL (≈ 7120 µM); solubility at 0.5 h ([7]; FaSSIF, pH 6.45, 0.5 h, 37° C.): 7 µg/mL (≈ 17.4 µM); solubility at 2 h ([7]; FaSSIF, pH 6.45, 2 h, 37° C.): 10 µg/mL (≈ 24.9 µM); solubility at 24 h ([7]; FaSSIF, pH 6.45, 24 h, 37° C.): 21 µg/mL (≈ 52.3 µM); solubility at 0.5 h ([7]; FeSSIF, pH 4.95, 0.5 h, 37° C.): 14 µg/mL (≈ 34.9 µM); solubility at 2 h ([7]; FeSSIF, pH 4.95, 2 h, 37° C.): 19 µg/mL (≈ 47.3 µM); solubility at 24 h ([7]; FeSSIF, pH 4.95, 24 h, 37° C.): 20 µg/mL (≈ 49.8 µM); solubility at 0.5 h ([7]; water, pH 5.53, 0.5 h, 37° C.): 5 µg/mL (≈ 12.5 µM); solubility at 2 h ([7]; water, pH 5.53, 2 h, 37° C.): 6 µg/mL (≈ 14.9 µM); solubility at 24 h ([7]; water, pH 5.53, 24 h, 37° C.): 5 µg/mL (≈ 12.5 µM); pH (solution pH) ([7]; water, pH 5.53, 24 h): 6.5
 |  |  |  |  |  |  |  |  |  |  |  |  |  |  |  |  |  |  | N#C[C@@]1(c2ccc3c(N)ncnn23)O[C@H](CO)[C@@H](O)[C@H]1O [GS-441524] |  | antiviral effect [8]: superior to that of Remdesivir; safety [9]: better safety

Reference: patent US20240366617A1, “NOVEL CRYSTALLINE FORMS OF A NUCLEOSIDE COMPOUND AND SALTS THEREOF” (priority 2021, published 2024)
